# Measurements published in PubChem BioAssay (NCI).
#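 Grown in 96-well plates, cells were treated for 48 hours with each compound at five concentrations. Insufficient inhibition: endpoint recorded as highest concentration tested. TGI: total growth inhibition.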
# What was measured:
# Assay in all cases: NCI anticancer screen, dose series, 48 h
# [1] = tested on: TK-10 renal
# [2] = tested on: HL-60(TB) leukemia
# [3] = tested on: SF-295 CNS
# [4] = tested on: SF-268 CNS
# [5] = tested on: M19-MEL melanoma
# [6] = tested on: A498 renal
# [7] = tested on: CAKI-1 renal
# [8] = tested on: SN12C renal
# [9] = tested on: HOP-62 NSCLC
# [10] = tested on: KM12 colon
# [11] = tested on: OVCAR-8 ovarian
# [12] = tested on: UACC-257 melanoma
# [13] = tested on: LXFL 529 NSCLC
# [14] = tested on: NCI-H23 lung
# [15] = tested on: HOP-18 NSCLC
# [16] = tested on: MOLT-4 leukemia
# [17] = tested on: EKVX NSCLC
# [18] = tested on: 786-0 renal
# [19] = tested on: UACC-62 melanoma
# [20] = tested on: UO-31 renal
# [21] = tested on: DLD-1 colon
# [22] = tested on: COLO 205 colon
# [23] = tested on: HCC-2998 colon
# [24] = tested on: HT29 colon
# [25] = tested on: K-562 leukemia
# [26] = tested on: SK-OV-3 ovarian
# [27] = tested on: DMS 114 small cell lung
# [28] = tested on: NCI-H522 lung
# [29] = tested on: LOX IMVI melanoma
# [30] = tested on: IGROV1 ovarian
# [31] = tested on: RXF 393 renal
# [32] = tested on: OVCAR-4 ovarian
# [33] = tested on: KM20L2 colon
# [34] = tested on: CCRF-CEM leukemia
# [35] = tested on: NCI-H460 lung
# [36] = tested on: A549 NSCLC
# [37] = tested on: HOP-92 NSCLC
# [38] = tested on: SNB-78 CNS
# [39] = tested on: SW-620 colon
# [40] = tested on: NCI-H226 lung
# [41] = tested on: SK-MEL-28 melanoma
# [42] = tested on: DMS 273 small cell lung
# [43] = tested on: RXF-631 renal
# [44] = tested on: SNB-19 CNS
# [45] = tested on: XF 498 CNS
# [46] = tested on: SF-539 CNS
# [47] = tested on: U251 CNS
# [48] = tested on: SK-MEL-2 melanoma
# [49] = tested on: ACHN renal
# [50] = tested on: RPMI-8226 leukemia
# [51] = tested on: MALME-3M melanoma
# [52] = tested on: OVCAR-3 ovarian
# [53] = tested on: OVCAR-5 ovarian
# [54] = tested on: HCT-15 colon
# [55] = tested on: SNB-75 CNS
# [56] = tested on: M14 melanoma
# [57] = tested on: HCT-116 colon
# [58] = tested on: SK-MEL-5 melanoma
# [59] = tested on: SR leukemia
structure (smiles),measurement,setting,value
COc1ccc2cc3n(c2c1)CCc1cc(OC)c(OC)cc1-3,TGI,[1],> 100 µM
same,TGI,[2],> 100 µM
same,TGI,[3],> 100 µM
same,TGI,[4],> 100 µM
same,TGI,[5],> 100 µM
same,TGI,[6],> 100 µM
same,TGI,[7],> 100 µM
same,TGI,[8],> 100 µM
same,TGI,[9],> 100 µM
same,TGI,[10],> 100 µM
same,TGI,[11],> 100 µM
same,TGI,[12],> 100 µM
same,TGI,[13],> 100 µM
same,TGI,[14],> 100 µM
same,TGI,[15],> 100 µM
same,TGI,[16],> 100 µM
same,TGI,[17],> 100 µM
same,TGI,[18],> 100 µM
same,TGI,[19],> 100 µM
same,TGI,[20],> 100 µM
same,TGI,[21],> 100 µM
same,TGI,[22],> 100 µM
same,TGI,[23],> 100 µM
same,TGI,[24],> 100 µM
same,TGI,[25],> 100 µM
same,TGI,[26],> 100 µM
same,TGI,[27],> 100 µM
same,TGI,[28],> 100 µM
same,TGI,[29],> 100 µM
same,TGI,[30],> 100 µM
same,TGI,[31],> 100 µM
same,TGI,[32],> 100 µM
same,TGI,[33],> 100 µM
same,TGI,[34],> 100 µM
same,TGI,[35],> 100 µM
same,TGI,[36],> 100 µM
same,TGI,[37],> 100 µM
same,TGI,[38],> 100 µM
same,TGI,[39],> 100 µM
same,TGI,[40],> 100 µM
same,TGI,[41],> 100 µM
same,TGI,[42],> 100 µM
same,TGI,[43],> 100 µM
same,TGI,[44],> 100 µM
same,TGI,[45],> 100 µM
same,TGI,[46],> 100 µM
same,TGI,[47],> 100 µM
same,TGI,[48],> 100 µM
same,TGI,[49],> 100 µM
O=C1C(=O)N(C2C3CC4CC(C3)CC2C4)C(=O)C(=O)C1c1nc2ccccc2o1 (stereo unspecified),TGI,[1],> 100 µM
same,TGI,[3],> 100 µM
same,TGI,[50],> 100 µM
same,TGI,[4],> 100 µM
same,TGI,[5],> 100 µM
same,TGI,[51],> 100 µM
same,TGI,[7],> 100 µM
same,TGI,[8],> 100 µM
same,TGI,[9],> 100 µM
same,TGI,[10],> 100 µM
same,TGI,[11],> 100 µM
same,TGI,[12],> 100 µM
same,TGI,[13],> 100 µM
same,TGI,[14],> 100 µM
same,TGI,[15],> 100 µM
same,TGI,[52],54 µM
same,TGI,[17],> 100 µM
same,TGI,[18],> 100 µM
same,TGI,[19],> 100 µM
same,TGI,[20],> 100 µM
same,TGI,[53],> 100 µM
same,TGI,[21],92.9 µM
same,TGI,[22],> 100 µM
same,TGI,[23],> 100 µM
same,TGI,[54],> 100 µM
same,TGI,[24],49.9 µM
same,TGI,[25],77.4 µM
same,TGI,[26],> 100 µM
same,TGI,[55],> 100 µM
same,TGI,[27],44.7 µM
same,TGI,[29],> 100 µM
same,TGI,[30],> 100 µM
same,TGI,[31],> 100 µM
same,TGI,[32],> 100 µM
same,TGI,[33],> 100 µM
same,TGI,[56],> 100 µM
same,TGI,[35],> 100 µM
same,TGI,[36],> 100 µM
same,TGI,[37],> 100 µM
same,TGI,[38],> 100 µM
same,TGI,[39],> 100 µM
same,TGI,[40],> 100 µM
same,TGI,[41],> 100 µM
same,TGI,[42],> 100 µM
same,TGI,[43],> 100 µM
same,TGI,[44],> 100 µM
same,TGI,[57],> 100 µM
same,TGI,[45],> 100 µM
same,TGI,[46],> 100 µM
same,TGI,[47],> 100 µM
same,TGI,[48],> 100 µM
same,TGI,[49],> 100 µM
CN(C)CCNC(=O)c1ccc(Cl)c2c(Nc3ccc(S(N)(=O)=O)cc3)c3ccccc3nc12,TGI,[1],13.6 µM
same,TGI,[58],11.8 µM
same,TGI,[3],15.3 µM
same,TGI,[50],29.1 µM
same,TGI,[4],13.8 µM
same,TGI,[5],4.52 µM
same,TGI,[6],13.4 µM
same,TGI,[51],12.5 µM
same,TGI,[7],17.1 µM
same,TGI,[8],10.1 µM
same,TGI,[9],21.6 µM
same,TGI,[10],5.12 µM
same,TGI,[11],6.84 µM
same,TGI,[12],12.7 µM
same,TGI,[13],11.2 µM
same,TGI,[14],11.6 µM
same,TGI,[15],5.92 µM
same,TGI,[17],17.7 µM
same,TGI,[18],9.2 µM
same,TGI,[19],3.05 µM
same,TGI,[20],11 µM
same,TGI,[53],8.48 µM
same,TGI,[21],8.85 µM
same,TGI,[22],2.15 µM
same,TGI,[23],14.8 µM
same,TGI,[54],15.5 µM
same,TGI,[24],6.41 µM
same,TGI,[25],11.4 µM
same,TGI,[26],10.1 µM
same,TGI,[55],4.72 µM
same,TGI,[27],4.63 µM
same,TGI,[28],1.94 µM
same,TGI,[29],2.35 µM
same,TGI,[30],16.5 µM
same,TGI,[32],6.22 µM
same,TGI,[33],13.4 µM
same,TGI,[56],10.7 µM
same,TGI,[35],7.28 µM
same,TGI,[36],11.9 µM
same,TGI,[37],8.54 µM
same,TGI,[39],2.52 µM
same,TGI,[40],4.56 µM
same,TGI,[41],9.38 µM
same,TGI,[59],> 100 µM
same,TGI,[42],8.09 µM
same,TGI,[43],11.6 µM
same,TGI,[44],14.5 µM
same,TGI,[57],1.71 µM
same,TGI,[45],2.86 µM
same,TGI,[46],4.79 µM
same,TGI,[47],14.1 µM
same,TGI,[48],4 µM
same,TGI,[49],10.9 µM
CCOC(=O)N1C2C=C(C)C(C3C(C)C(=O)N31)N(C(=O)c1ccccc1)O2 (stereo unspecified),TGI,[1],> 100 µM
same,TGI,[2],> 100 µM
same,TGI,[58],> 100 µM
same,TGI,[3],> 100 µM
same,TGI,[50],> 100 µM
same,TGI,[4],> 100 µM
same,TGI,[5],> 100 µM
same,TGI,[6],> 100 µM
same,TGI,[51],> 100 µM
same,TGI,[7],> 100 µM
same,TGI,[8],> 100 µM
same,TGI,[9],> 100 µM
same,TGI,[10],> 100 µM
same,TGI,[11],> 100 µM
same,TGI,[12],> 100 µM
same,TGI,[13],> 100 µM
same,TGI,[14],> 100 µM
same,TGI,[15],> 100 µM
same,TGI,[52],> 100 µM
same,TGI,[16],> 100 µM
same,TGI,[17],> 100 µM
same,TGI,[18],> 100 µM
same,TGI,[19],> 100 µM
same,TGI,[20],> 100 µM
same,TGI,[53],> 100 µM
same,TGI,[21],> 100 µM
same,TGI,[22],> 100 µM
same,TGI,[23],> 100 µM
same,TGI,[54],> 100 µM
same,TGI,[24],> 100 µM
same,TGI,[25],> 100 µM
same,TGI,[26],> 100 µM
same,TGI,[55],> 100 µM
same,TGI,[27],> 100 µM
same,TGI,[29],> 100 µM
same,TGI,[30],> 100 µM
same,TGI,[31],> 100 µM
same,TGI,[32],> 100 µM
same,TGI,[34],> 100 µM
same,TGI,[56],> 100 µM
same,TGI,[35],> 100 µM
same,TGI,[36],> 100 µM
same,TGI,[37],> 100 µM
same,TGI,[38],> 100 µM
same,TGI,[39],> 100 µM
same,TGI,[40],> 100 µM
same,TGI,[41],> 100 µM
same,TGI,[59],> 100 µM
same,TGI,[42],> 100 µM
same,TGI,[43],> 100 µM
same,TGI,[44],> 100 µM
same,TGI,[57],> 100 µM
same,TGI,[45],> 100 µM
same,TGI,[46],> 100 µM
same,TGI,[47],> 100 µM
same,TGI,[48],> 100 µM
same,TGI,[49],> 100 µM
